Experimental data reported in US9834542B2, “LXR modulators” (BRISTOL-MYERS SQUIBB COMPANY, priority 2013, dated 2017).
pEC50: −log10 of the molar value.

Target: T1, LXRβ (Homo sapiens, UniProt P55055)
T1 construct: Co-transfection expression plasmids, comprising full-length LXRα (pCMX-h LXRα[…] or LXRβ (pCMX-hLXRβ)); expressed in transfected cells; host or cells: CV-1 African Green Monkey Kidney Cells
T1 sequence (P55055 1-460): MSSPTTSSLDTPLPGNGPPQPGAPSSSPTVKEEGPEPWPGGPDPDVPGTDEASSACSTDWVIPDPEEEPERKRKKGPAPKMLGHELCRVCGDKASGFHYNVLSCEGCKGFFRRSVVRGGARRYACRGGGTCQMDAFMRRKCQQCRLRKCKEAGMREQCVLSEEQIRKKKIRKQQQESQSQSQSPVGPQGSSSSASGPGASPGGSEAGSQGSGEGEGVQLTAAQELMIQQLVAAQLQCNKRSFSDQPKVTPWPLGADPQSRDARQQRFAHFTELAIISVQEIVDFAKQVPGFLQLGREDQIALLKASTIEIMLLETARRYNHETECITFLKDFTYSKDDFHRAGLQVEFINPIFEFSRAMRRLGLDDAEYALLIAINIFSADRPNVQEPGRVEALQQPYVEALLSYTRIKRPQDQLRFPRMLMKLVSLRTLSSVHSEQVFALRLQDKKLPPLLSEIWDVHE
T1 sequence (P19793 1-462 partner): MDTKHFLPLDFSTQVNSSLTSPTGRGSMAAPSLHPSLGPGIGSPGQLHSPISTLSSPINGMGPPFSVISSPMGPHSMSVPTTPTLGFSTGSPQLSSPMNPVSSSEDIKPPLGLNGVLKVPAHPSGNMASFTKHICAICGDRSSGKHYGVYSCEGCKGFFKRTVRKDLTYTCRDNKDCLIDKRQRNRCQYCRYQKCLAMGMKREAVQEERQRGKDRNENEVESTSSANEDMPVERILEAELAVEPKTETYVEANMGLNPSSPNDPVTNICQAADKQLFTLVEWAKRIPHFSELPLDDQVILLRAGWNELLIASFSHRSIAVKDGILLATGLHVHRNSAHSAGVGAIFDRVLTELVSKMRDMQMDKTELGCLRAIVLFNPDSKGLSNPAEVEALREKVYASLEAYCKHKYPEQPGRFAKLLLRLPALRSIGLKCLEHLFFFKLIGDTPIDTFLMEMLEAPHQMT
Experiment: Co-transfection assay (LXRE luciferase reporter), LXRβ
Type: cell-based
Details: for pEC50: CV-1 cells transfected with pCMX-hLXRβ and LXREx1-Tk-Luciferase, 20 hours incubation; for Emax: LXRβ co-transfection, relative to high control 1-(2,4-difluorobenzyl)-2-oxo-6-(4-phenoxyphenyl)-4-(trifluoromethyl)-1,2-dihydropyridine-3-carbonitrile, read-out: % Efficacy
Summary of the method: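 CV-1 cells transiently co-transfected with full-length human LXRβ (or LXRα), LXREx1-Tk-luciferase reporter and β-galactosidase control; compound added (10 μM final in single-point, 11-point ½-log curves, ≤0.5% DMSO) for 20 h at 37 °C. Luciferase read; EC50 from four-parameter fit, efficacy relative to reference agonist high control.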

| Structure (SMILES) | pEC50 | Emax [%] |
| --- | --- | --- |
| Cc1nc(C(F)(F)F)cn1-c1ccc(-c2cccc(S(C)(=O)=O)c2)cc1-c1oc(CCO)nc1-c1ccc(OC(F)(F)F)cc1 [Example 611, 2-(5-(4-(2-methyl-4-(trifluoromethyl)-1H-imidazol-1-yl)-3′-(methylsulfonyl)-[1,1′-biphenyl]-3-yl)-4-(4-(trifluoromethoxy)phenyl)oxazol-2-yl)ethanol] | 6.26 | 62 |
| Cc1nc(-c2cc(-c3cc(F)c(CO)c(S(C)(=O)=O)c3)ccc2-n2cc(C(F)(F)F)nc2C)c(-c2ccc(Cl)nc2Cl)o1 [Example 567, (3′-(5-(2,6-dichloropyridin-3-yl)-2-methyloxazol-4-yl)-3-fluoro-4′-(2-methyl-4-(trifluoromethyl)-1H-imidazol-1-yl)-5-(methylsulfonyl)-[1,1′-biphenyl]-4-yl)methanol] | 6.95 | 93 |
| Cc1nc(C(F)F)cn1-c1ccc(-c2cccc(S(C)(=O)=O)c2)cc1-n1nncc1-c1ccc(OC(F)(F)F)cc1 [Example 6] | 6.07 | 93 |
| Cc1nc(-c2cc(-c3cccc(C(=O)N(C)C)c3)ccc2-n2cc(C(F)(F)F)nc2C)c(-c2ccc(OC(F)F)c(F)c2)o1 [Example 442, 3′-(5-(4-(difluoromethoxy)-3-fluorophenyl)-2-methyloxazol-4-yl)-N,N-dimethyl-4′-(2-methyl-4-(trifluoromethyl)-1H-imidazol-1-yl)biphenyl-3-carboxamide] | 6.14 | 58 |
| COc1ncc(-c2oc(C)nc2-c2cc(-c3cc(F)c(CO)c(S(C)(=O)=O)c3)ccc2-n2cc(C(F)(F)F)nc2C)cc1F [Example 440, (3-fluoro-3′-(5-(5-fluoro-6-methoxypyridin-3-yl)-2-methyloxazol-4-yl)-4′-(2-methyl-4-(trifluoromethyl)-1H-imidazol-1-yl)-5-(methylsulfonyl)biphenyl-4-yl)methanol] | 6.67 | 75 |
| COc1ncc(-c2oc(C)nc2-c2cc(-c3cc(F)c(CO)c(S(C)(=O)=O)c3)ccc2-n2cc(C(F)(F)F)nc2C)cn1 [Example 415, (3-fluoro-3′-(5-(2-methoxypyrimidin-5-yl)-2-methyloxazol-4-yl)-4′-(2-methyl-4-(trifluoromethyl)-1H-imidazol-1-yl)-5-(methylsulfonyl)biphenyl-4-yl)methanol] | 5.83 | 86 |
| Cc1nc(-c2cc(-c3cccc(S(C)(=O)=O)c3)ccc2-n2cc(C(F)(F)F)nc2C)c(-c2ccc(Cl)cc2F)o1 [Example 484, 5-(4-chloro-2-fluorophenyl)-2-methyl-4-(4-(2-methyl-4-(trifluoromethyl)-1H-imidazol-1-yl)-3′-(methylsulfonyl)biphenyl-3-yl)oxazole] | 7.32 | 57 |
| Cc1nc(C(F)(F)F)cn1-c1ccc(-c2cccc(S(C)(=O)=O)c2)cc1-c1cnnn1-c1ccc(OC(F)(F)F)cc1 [Example 242, 5-{3′-(methylsulfonyl)-4-[2-methyl-4-(trifluoromethyl)-1H-imidazol-1-yl]biphenyl-3-yl}-1-{4-[(trifluoromethyl)oxy]phenyl}-1H-1,2,3-triazole] | 6.70 | 105 |
| Cc1nc(-c2cc(-c3cccc(S(C)(=O)=O)c3)ccc2-n2cc(C(F)(F)F)nc2C)c(-c2ccc(F)c(F)c2)o1 [Example 511, 5-(3,4-difluorophenyl)-2-methyl-4-(4-(2-methyl-4-(trifluoromethyl)-1H-imidazol-1-yl)-3′-(methylsulfonyl)biphenyl-3-yl)oxazole] | 6.94 | 79 |
| Cc1nc(C(F)(F)C(C)C)cn1-c1ccc(-c2cc(F)c(CO)c(S(C)(=O)=O)c2)cc1-n1nncc1-c1ccc(OC(F)(F)F)cc1 [Example 221, (4′-(4-(1,1-difluoro-2-methylpropyl)-2-methyl-1H-imidazol-1-yl)-3-fluoro-5-(methylsulfonyl)-3′-(5-(4-(trifluoromethoxy)phenyl)-1H-1,2,3-triazol-1-yl)-[1,1′-biphenyl]-4-yl)methanol] | 6.95 | 69 |
| CCS(=O)(=O)c1cccc(-c2ccc(-n3cc(C(F)F)nc3C)c(-n3nncc3-c3ccc(OC(F)(F)F)cc3)c2)c1 [Example 157, 1-{4-[4-(difluoromethyl)-2-methyl-1H-imidazol-1-yl]-3′-(ethylsulfonyl)biphenyl-3-yl}-5-{4-[(trifluoromethyl)oxy]phenyl}-1H-1,2,3-triazole] | 5.95 | 104 |
| Cc1nc(-c2ccccc2C(F)(F)F)c(-c2cc(-c3cccc(S(C)(=O)=O)c3)ccc2-n2cc(C(F)(F)F)nc2C)o1 [Example 629, 2-methyl-5-(4-(2-methyl-4-(trifluoromethyl)-1H-imidazol-1-yl)-3′-(methylsulfonyl)-[1,1′-biphenyl]-3-yl)-4-(2-(trifluoromethyl)phenyl)oxazole] | 6.52 | 31 |
| Cc1nc(C(F)(F)F)cn1-c1ccc(-c2cc(F)c(CO)c(S(C)(=O)=O)c2)cc1-c1ocnc1Cc1ccc(Cl)cc1 [Example 633, (3′-(4-(4-chlorobenzyl)oxazol-5-yl)-3-fluoro-4′-(2-methyl-4-(trifluoromethyl)-1H-imidazol-1-yl)-5-(methylsulfonyl)-[1,1′-biphenyl]-4-yl)methanol] | 6.79 | 66 |
| COCc1c(F)cc(-c2ccc(-n3cc(C(F)(F)F)nc3C)c(-n3nncc3-c3ccc(OC(F)(F)F)cc3)c2)cc1S(C)(=O)=O [Example 88, 1-{3′-fluoro-4′-[(methyloxy)methyl]-5′-(methylsulfonyl)-4-[2-methyl-4-(trifluoromethyl)-1H-imidazol-1-yl]biphenyl-3-yl}-5-{4-[(trifluoromethyl)oxy]phenyl}-1H-1,2,3-triazole] | 6.51 | 111 |
| Cc1cc(-c2cc(-c3cccc(S(C)(=O)=O)c3)ccc2-n2cc(C(F)(F)F)nc2C)n(-c2ccc(OC(F)F)cc2)n1 [Example 301, 1-(4-(difluoromethoxy)phenyl)-3-methyl-5-(4-(2-methyl-4-(trifluoromethyl)-1H-imidazol-1-yl)-3′-(methylsulfonyl)biphenyl-3-yl)-1H-pyrazole] | 7.31 | 91 |
| Cc1nc(-c2cc(-c3cc(F)c(CO)c(S(C)(=O)=O)c3)ccc2-n2cc(C(F)(F)F)nc2C)c(-c2ccc(N3CCCC3=O)cc2)o1 [Example 501] | 5.79 | 38 |
| Cc1nc(C(F)(F)F)cn1-c1ccc(-c2cccc(C(C)(C)C(N)=O)c2)cc1-n1nncc1C(=O)c1ccc(Cl)cc1 [Example 139, 2-(3′-{5-[(4-chlorophenyl)carbonyl]-1H-1,2,3-triazol-1-yl}-4′-[2-methyl-4-(trifluoromethyl)-1H-imidazol-1-yl]biphenyl-3-yl)-2-methylpropanamide] | 5.83 | 71 |
| Cc1nc(C(F)(F)F)cn1-c1c(F)cc(-c2cc(F)c(CO)c(S(C)(=O)=O)c2)cc1-n1nncc1-c1ccc(OC(F)(F)F)cc1 [Example 202, [3,3′-difluoro-5-(methylsulfonyl)-4′-[2-methyl-4-(trifluoromethyl)-1H-imidazol-1-yl]-5′-(5-{4-[(trifluoromethyl)oxy]phenyl)-1H-1,2,3-triazol-1-yl)biphenyl-4-yl]methanol] | 6.97 | 77 |
| Cc1nc(-c2cc(-c3cccc(S(C)(=O)=O)c3)ccc2-n2cc(C(F)(F)F)nc2C)c(-c2ccc(Cl)nc2Cl)o1 [Example 566, 5-(2,6-dichloropyridin-3-yl)-2-methyl-4-(4-(2-methyl-4-(trifluoromethyl)-1H-imidazol-1-yl)-3′-(methylsulfonyl)-[1,1′-biphenyl]-3-yl)oxazole] | 6.64 | 94 |
| Cc1nc(C(F)(F)F)cn1-c1ccc(-c2cccc(S(C)(=O)=O)c2)cc1-c1ccnn1-c1ccc2c(c1)OC(F)(F)O2 [Example 293, 1-(2,2-difluorobenzo[d][1,3]dioxol-5-yl)-5-(4-(2-methyl-4-(trifluoromethyl)-1H-imidazol-1-yl)-3′-(methylsulfonyl)biphenyl-3-yl)-1H-pyrazole] | 6.94 | 97 |
| Cc1nc(C(F)(F)F)cn1-c1ccc(-c2cccc(S(C)(=O)=O)c2)cc1-c1ocnc1Cc1ccc(Cl)cc1 [Example 634, 4-(4-chlorobenzyl)-5-(4-(2-methyl-4-(trifluoromethyl)-1H-imidazol-1-yl)-3′-(methylsulfonyl)-[1,1′-biphenyl]-3-yl)oxazole] | 6.60 | 68 |
